The values that follow are results of earlier work, collected in patent EP3156049A1, “PHARMACEUTICAL COMPOSITION OF PRASUGREL” (Alembic Pharmaceuticals Limited, priority 2015, dated 2017).

Where two headings read alike, the source gives them in different places.

In the case of `CC(=O)Oc1cc2c(s1)CCN(C(C(=O)C1CC1)c1ccccc1F)C2.Cl` (racemic) [Prasugrel hydrochloride, 5-[(1RS)-2-cyclopropyl-1-(2-fluorophenyl)-2-oxoethyl]-4,5,6,7-tetrahydrothieno [3,2-c] pyridin-2-yl acetate hydrochloride], the Solubility result reads like this: (pH 2) “soluble”; (pH 3 to 4) “slightly soluble”; (pH 6 to 7.5) “practically insoluble”.
